Entries after “also recorded” stand apart in the source; their conditions may differ.
Tests used:
Set-up in all cases: species or system BALB/c mice
[1] = In vivo toxicity in mice: body weight, mortality, white blood cell differential (Example 9)
Source text: FIG. 2 is a pair of graphs depicting results of an in vivo toxicity assay in mice for specific quinoline and quinazoline compounds. […] N=3 for each treatment group.
FIG. 3 is a bar graph depicting total and differential white blood cell counts in mice measured five days after administration of a single intraperitoneal dose of specific quinoline and quinazoline compounds. N=3 for each treatment group.
Female BALB/c mice (n=3 per group) were given a single intraperitoneal bolus injection of CMZ 203-43 (1.0 or 4.0 mg), CMZ 203-34 (1.0 or 4.0 mg) or CMZ 203-49 (1.0 or 4.0 mg) in a volume of 0.2 ml. Compound CMZ 203-43 has the structural formula
Other mice received 10% dimethyl sulfoxide (DMSO) in an identical manner. Animals were weighed immediately prior to injection (day 1) and then daily until day 5. On day 5, blood was collected by cardiac puncture and analyzed for hematological and biochemical parameters. Animals were monitored daily for morbidity and mortality.
All of the mice receiving 4.0 mg CMZ 203-43 group were dead on day 4.
Data for mice treated with 4.0 mg CMZ 203-43 was not available because all these mice were dead before day 5.

[2] = test system: TNF-α induction by CpG ODN 2006; test: In vivo inhibition of TNF-α induction by CpG ODN 2006 (Example 11); conditions: 40 μg intraperitoneal 1 h before 100 μg CpG ODN 2006 s.c.; bled at 1 hr
Protocol: FIG. 5 is a bar graph depicting in vivo inhibition of TNF-α induction (pg/ml) by CpG ODN 2006 following pretreatment with PBS control or a quinoline compound (203-43) or various indicated quinazoline compounds (203-34, 203-49, or 203-51). N=5 for each group.
(§1) BALB/c mice (n=5) were pretreated with intraperitoneal injection of 40 μg quinoline 203-43, quinazoline 203-34, 203-49, or 203-51, or with 100 μl of sterile phosphate buffered saline (PBS) control. One hour after the injection, mice were injected subcutaneously with 100 μg CpG ODN 2006. Animals were bled at 3 hr post injection with CpG ODN 2006 and IP-10 levels in plasma measured by IP-10-specific enzyme-linked immunosorbent assay (ELISA).
Groups of BALB/c mice treated as in Example 10 were also analyzed for TNF-α. Animals were bled at 1 hr post injection with CpG ODN 2006 and TNF-α levels in plasma measured by TNF-α-specific ELISA.

[3] = test system: IP-10 induction by CpG ODN 2006; test: In vivo inhibition of IP-10 induction by CpG ODN 2006 (Example 10); conditions: 40 μg intraperitoneal 1 h before 100 μg CpG ODN 2006 s.c.; bled at 3 hr
Protocol: FIG. 4 is a bar graph depicting in vivo inhibition of IP-10 induction (pg/ml) by CpG ODN 2006 following pretreatment with PBS control or a quinoline compound (203-43) or various indicated quinazoline compounds (203-34, 203-49, or 203-51). N=5 for each group.
as §1

[4] = 4.0 mg single intraperitoneal injection

In the case of `CN(C)CCNc1cc(-c2ccc(N3CCN(C)CC3)cc2)nc2ccccc12` [CMZ 203-43], the body weight change ([1]; 1.0 mg single intraperitoneal injection, 5 days) is reported as “significant weight loss”, the “white blood cell differential” value ([1]; 1.0 mg single intraperitoneal injection, day 5) is reported as “significant neutrophilia” and the morbidity and mortality [1, 4] is reported as “sick and had to be sacrificed on day 3; also recorded: dead on day 4”. The necropsy finding [1, 4] was “bowel obstruction”, the “serum TNF-α concentration versus PBS control” value [2] was “significantly reduced” and the “serum IP-10 concentration versus PBS control” value [3] was “significantly reduced”.
